Assay results published in patent US12653183B2, “Hygroscopic salt microencapsulation, and uses thereof” (priority 2020, dated 2026).

Assays:
feral pigs [1] = conditions: cited from earlier work
feral pigs [2] = experiment: LD50 and time to death of 1080 in feral pigs; conditions: feral pigs vs wild dogs
[3] = pH<7

SMILES | time for pigs to die (feral pigs [1]) | multiple of the dose used for canid pests (feral pigs [2]) | stability of sodium nitrite in the bait composition [3]
O=C(O)CF [compound 1080, sodium fluoroacetate] | up to 12 hours | ≤ 40 fold | –
O=NO [sodium nitrite] | – | – | unstable
